The values below come from PubChem BioAssay (NCI).

Some test systems named below: OVCAR-4 ovarian; U251 CNS; UACC-62 melanoma; HOP-62 NSCLC; SF-268 CNS; A549 NSCLC; IGROV1 ovarian; COLO 205 colon; HCC-2998 colon; SR leukemia.
Test in all cases: NCI-60 cell line screen, 48 h

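Protocol summary: plate cells (96-well), add compound at 5 concentrations, incubate 48 h, interpolate endpoints linearly. Here, GI50 denotes the concentration required for 50% inhibition of growth. TGI denotes the concentration required for complete inhibition of growth.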 Bounds are passed on as bounds.

In the case of `COC(=O)C(C/C=C(\C)c1ccc(Cl)cc1)C(C)=O` (stereo unspecified), the TGI with OVCAR-4 ovarian is above 100 µM; in the assay with U251 CNS it was above 86.6 µM; in the assay with UACC-62 melanoma, above 100 µM; with HOP-62 NSCLC, above 100 µM; in the assay with SF-268 CNS it was above 100 µM; in the assay with A549 NSCLC it was above 90.6 µM. Further, the TGI with IGROV1 ovarian, in the assay with COLO 205 colon and in the assay with HCC-2998 colon was above 100 µM throughout.
Take `CN1CN(c2ccccc2)C2(CCN(CCC3COc4ccccc4O3)CC2)C1=O` (stereo unspecified): the TGI with U251 CNS is 66.5 µM; with UACC-62 melanoma it was 91.6 µM; with SF-268 CNS, above 100 µM; with A549 NSCLC it was above 100 µM; in the assay with IGROV1 ovarian it was 75.2 µM; with SR leukemia, 71.6 µM. The figures for the TGI with COLO 205 colon and in the assay on HCC-2998 colon were 34.2 µM and 23.9 µM, respectively.
Regarding `CC1CCC2(CC1)NC1=C(CC(C)CC1)C1=C2CC(C)CC1` (stereo unspecified), the TGI was 94.2 µM in the assay with OVCAR-4 ovarian; 33.5 µM in the assay with U251 CNS; above 100 µM in the assay on A549 NSCLC; above 100 µM in the assay with IGROV1 ovarian; 55.8 µM with SR leukemia; 49.8 µM in the assay with COLO 205 colon. Also, the TGI in the assay with HCC-2998 colon is 45.1 µM.
For `COc1ccc(C2C3CCc4ccccc4C3=NN2S(=O)(=O)c2ccc(/C=C/C(=O)O)cc2)cc1` (stereo unspecified), the TGI was 54.1 µM in the assay with OVCAR-4 ovarian; 11.6 µM with U251 CNS; 23.8 µM with UACC-62 melanoma; above 100 µM with HOP-62 NSCLC; 71.2 µM in the assay on SF-268 CNS; 54.4 µM in the assay with A549 NSCLC. Besides, the results for the TGI in the assay on IGROV1 ovarian, in the assay with SR leukemia and in the assay with COLO 205 colon were 4.91 µM, 6.9 µM and 7.43 µM, respectively.
As for `COc1ccc(C2CC3(c4ccccc4)ON=C(c4ccccc4)N3c3ccccc3S2)cc1` (stereo unspecified), the TGI in the assay on OVCAR-4 ovarian, in the assay with U251 CNS, with UACC-62 melanoma, in the assay with HOP-62 NSCLC, in the assay with SF-268 CNS and in the assay with A549 NSCLC was above 100 µM throughout. Besides, the TGI in the assay with IGROV1 ovarian, in the assay on COLO 205 colon and in the assay on HCC-2998 colon was above 100 µM throughout.
On to `CN1CCN(Cc2ccc(NC(=O)c3cccc(C#Cc4cnc(N)c5ncccc45)c3F)cc2C(F)(F)F)CC1`, for which the GI50 was 735 nM in the assay on OVCAR-4 ovarian; 741 nM with U251 CNS; 2840 nM in the assay with UACC-62 melanoma; 1740 nM with HOP-62 NSCLC; 5.13 µM in the assay on SF-268 CNS; 747 nM in the assay with A549 NSCLC. In addition, the GI50 with IGROV1 ovarian was 476 nM; with COLO 205 colon, 1170 nM; with HCC-2998 colon it was 834 nM. In addition, the TGI was 1.59 µM in the assay on OVCAR-4 ovarian; 1.43 µM in the assay on U251 CNS; 13.1 µM with UACC-62 melanoma; 8.71 µM in the assay on HOP-62 NSCLC; 14.7 µM in the assay with SF-268 CNS; 1.58 µM in the assay on A549 NSCLC. Also, the TGI in the assay on IGROV1 ovarian was found to be 1.31 µM; with COLO 205 colon, 6.07 µM; in the assay with HCC-2998 colon, 1.6 µM.
In the case of `O=C(Nc1cccc2c1[nH]c1c(-c3ccccc3)nccc12)c1ccccc1[N+](=O)[O-]`, the TGI with OVCAR-4 ovarian, in the assay on U251 CNS, in the assay with SF-268 CNS, with A549 NSCLC, with IGROV1 ovarian and in the assay with SR leukemia was above 100 µM each time. Also, the TGI in the assay with COLO 205 colon and in the assay on HCC-2998 colon was above 100 µM each time.
As for `COC(=O)C1=C(C)C=C(N2CCOCC2)C(C(=O)OC)C1c1ccccc1` (stereo unspecified), the TGI in the assay on OVCAR-4 ovarian, in the assay with U251 CNS, in the assay on HOP-62 NSCLC, in the assay with SF-268 CNS, in the assay on A549 NSCLC and in the assay with IGROV1 ovarian was above 10 µM throughout. The TGI with COLO 205 colon and in the assay with HCC-2998 colon was above 10 µM throughout.
For the compound `CC(=O)OC12c3ccccc3-c3ccccc3C1C1C(=O)OC(=O)C12` (stereo unspecified), the TGI in the assay with OVCAR-4 ovarian, in the assay on U251 CNS, with HOP-62 NSCLC, in the assay on SF-268 CNS, in the assay with IGROV1 ovarian and in the assay on SR leukemia was above 10 µM each time. Further, the TGI with COLO 205 colon and in the assay on HCC-2998 colon was above 10 µM in each case.
As for `COc1ccccc1/C=C1\NC(=S)N(/C=C2\C(=O)Oc3ccccc3C2=O)C1=O`, the TGI in the assay with OVCAR-4 ovarian, with U251 CNS, with UACC-62 melanoma, in the assay on HOP-62 NSCLC, with SF-268 CNS and in the assay on A549 NSCLC was above 100 µM each time. Moreover, the TGI in the assay on IGROV1 ovarian, in the assay on COLO 205 colon and in the assay with HCC-2998 colon was above 100 µM each time.
With `CC(C)(CCCCC(C)(C)[N+](C)(C)C)[N+](C)(C)C`, the TGI with OVCAR-4 ovarian, in the assay with U251 CNS, in the assay with HOP-62 NSCLC, in the assay on SF-268 CNS, in the assay with A549 NSCLC and with IGROV1 ovarian was above 100 µM in each case. Moreover, the TGI in the assay on SR leukemia, with COLO 205 colon and in the assay with HCC-2998 colon was above 100 µM in each case.
Consider `Fc1ccc(-c2sc(-c3cccs3)cc2Cc2cccs2)cc1`, for which the TGI in the assay on OVCAR-4 ovarian, in the assay with U251 CNS, with UACC-62 melanoma, in the assay with SF-268 CNS, with A549 NSCLC and with IGROV1 ovarian was above 100 µM throughout. Besides, the TGI in the assay with COLO 205 colon and in the assay on HCC-2998 colon was above 100 µM throughout.
In the case of `CSc1nc2c(ncn2C2OCC(O)C(O)C2O)c(=O)n1C` (stereo unspecified), the TGI with OVCAR-4 ovarian, in the assay with U251 CNS, in the assay with UACC-62 melanoma, with HOP-62 NSCLC, in the assay with SF-268 CNS and with A549 NSCLC was above 100 µM throughout. The TGI in the assay on IGROV1 ovarian, with COLO 205 colon and in the assay on HCC-2998 colon was above 100 µM each time.
`C/C(=N\Nc1nc2cccnc2s1)c1ccccn1`: the TGI with OVCAR-4 ovarian was 29.5 µM; with U251 CNS it was above 100 µM; with A549 NSCLC it was above 34.8 µM; in the assay on IGROV1 ovarian, 1.3 µM; in the assay with SR leukemia, above 100 µM; with COLO 205 colon it was above 100 µM. The TGI with HCC-2998 colon was 3.18 µM.
